Structures are written as SMILES.

One experiment addresses T1, TRPV1 receptor (Homo sapiens, UniProt Q8NER1).
T1 construct: Sensory neurons cultured in the presence of normal human epidermal keratinocytes; endogenous in cells; host or cells: sensory neurons in co-culture with normal human epidermal keratinocytes
The experiment can be described thus: Intracytoplasmic calcium mobilization (Fluo-4) in sensory neurons stimulated by capsaicin in co-culture with keratinocytes. The class given is cell-based. The note with it: capsaicin 10^-6 M, vs. control. On the procedure:
Activation of the TRPV1 receptor on sensory neurons can be evaluated by analyzing the electrical activity of sensory neurons by monitoring variations of the cytoplasmic calcium concentration. Indeed, when cells are stimulated by capsaicin, a massive amount of extracellular calcium enters the neuronal cytoplasm in order to trigger electrical activity and to cause a massive release of neuropeptides in the extracellular space. The variation of the level of fluorescence is analyzed by the incorporation of a calcium-dependent fluorescent probe (Fluo-4) in the cells. Thus, during the increase in calcium in the cells, the level of fluorescence increases in the cell body of the neurons. The higher this level, the higher the stimulation of the neurons. Sensory neurons cultured in the presence of normal human epidermal keratinocytes were incubated in the presence of the peptide and oside extract of Schisandra sphenanthera at concentrations of 0.005%, 0.01%, 0.05% and 0.1% (DM) or the reference molecule, capsazepine, at a concentration of 10^−5 M (Sigma). After 60 minutes of pre-incubation, the fluorescent probe, Fluo-4 (Molecular probe), was added to the culture medium and the cells were incubated 30 minutes. […] The significance of the results was confirmed by Bartlett's test.
(Calcium assays in cells follow changes in intracellular calcium, usually with a dye or a luminescent sensor.)

Another experiment deals with CGRP. Put plainly: CGRP release by sensory neurons stimulated by capsaicin in co-culture with keratinocytes. The class given is cell-based. As to conditions: 60 min pre-incubation, extract 0.005%-0.1% (DM) or capsazepine 10^-5 M, capsaicin 10^-7 M, 15 min. On the procedure: Sensory neurons were cultured in the presence of normal human epidermal keratinocytes. After 3 days of co-culture, the neurons project extensions in the form of free endings in contact with the keratinocytes. The cells were then incubated in the presence of the peptide and oside extract of Schisandra Sphenanthera at concentrations of 0.005%, 0.01%, 0.05% and 0.1% (DM) or the reference molecule, capsazepine, at a concentration of 10^−5 M (Sigma). After 60 minutes of pre-incubation, the neurons (in co-culture) were stimulated by capsaicin at a concentration of 10^−7 M (Sigma). After 15 minutes of stimulation, the culture supernatants were collected in order to assay the released CGRP. The CGRP assay was carried out using the CGRP assay kit (SpiBio). The significance of the results was confirmed by one-way analysis of variance followed by Dunnett's test.

T1 sequence (Q8NER1 whole entry): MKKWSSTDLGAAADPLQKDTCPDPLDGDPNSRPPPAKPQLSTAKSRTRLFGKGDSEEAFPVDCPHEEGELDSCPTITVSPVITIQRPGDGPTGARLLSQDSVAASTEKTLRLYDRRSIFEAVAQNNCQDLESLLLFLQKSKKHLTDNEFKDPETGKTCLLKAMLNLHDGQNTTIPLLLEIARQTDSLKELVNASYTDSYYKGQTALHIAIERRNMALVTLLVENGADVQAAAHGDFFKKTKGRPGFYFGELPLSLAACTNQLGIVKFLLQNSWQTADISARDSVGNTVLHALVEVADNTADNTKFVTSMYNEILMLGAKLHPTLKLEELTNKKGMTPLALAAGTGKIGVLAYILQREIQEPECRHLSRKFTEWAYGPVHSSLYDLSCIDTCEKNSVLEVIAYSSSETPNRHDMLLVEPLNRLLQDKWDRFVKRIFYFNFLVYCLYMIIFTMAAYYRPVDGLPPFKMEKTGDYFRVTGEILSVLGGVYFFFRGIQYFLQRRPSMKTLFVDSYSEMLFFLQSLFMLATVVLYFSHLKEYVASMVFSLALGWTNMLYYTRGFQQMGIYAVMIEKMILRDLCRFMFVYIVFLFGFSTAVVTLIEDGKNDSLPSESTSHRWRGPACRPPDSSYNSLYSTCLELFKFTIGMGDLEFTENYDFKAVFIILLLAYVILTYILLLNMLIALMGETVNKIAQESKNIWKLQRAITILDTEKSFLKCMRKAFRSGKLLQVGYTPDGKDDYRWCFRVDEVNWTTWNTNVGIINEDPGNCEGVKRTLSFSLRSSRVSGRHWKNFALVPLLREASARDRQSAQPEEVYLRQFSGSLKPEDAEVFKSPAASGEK

Consider `COc1cc(CNC(=O)CCCC/C=C/C(C)C)ccc1O` [capsaicin], for which the “level of fluorescence (quantity of intracytoplasmic calcium) after addition of the stimulus” value on TRPV1 receptor is recorded as “significant increase in the level of fluorescence”.
With `Oc1cc2c(cc1O)CN(C(=S)NCCc1ccc(Cl)cc1)CCC2` [capsazepine], the “release of CGRP induced by capsaicin” value in the experiment with CGRP is “inhibitory effect”.

For the origin of these results see US10143648B2, “Peptide and oside extract of schisandra fruit and improvement in the response of the cutaneous neurosensory system” (LABORATOIRES EXPANSCIENCE, priority 2014, dated 2018).
